# Read-outs that look alike come from different tables or passages of the source.
# Key:
# Aβ in N2a/AβPPswe cells = test: Sandwich ELISA of Aβ in N2a/AβPPswe cells treated with THC and CB1 inhibitor rimonabant; format: cell-based, human
# Description: The mechanism of action was elucidated for THC's effect on Aβ levels using a sandwich ELISA assay. N2a/AβPPswe cells, as discussed in Example 1, were suspended to 2×10^5/mL, 3 mL plated into each well, and grown in DMEM with 10% fetal bovine serum, 100 U/mL penicillin, 100 μg/mL streptomycin, and 400 μg/mL G418 (Invitrogen), at 37° C. in the presence of 5% CO2. N2a/AβPPswe cells were subcultured using trypsin, and pipetted numerous times to ensure cells were separated into individual cells. Cells were counted, as provided in Example 1, and proper amount of cell medium and fresh medium was added into new flasks according to the ratio of dilution. Pipetting was performed 10 times to homogenize cells, and 3 mL of cells were seeded into medium into each 6 well plate. When one pipette was used up, the cells were mixed in the flask before using them for the next pipette. Compounds were suspended in DMSO.
# 12 hours after cells were plated, cells were treated with 25 nM of Δ9-THC (T4764-1ML Sigma Aldrich, Merck KGaA; Darmstadt, Germany), with the known inhibitor of the CB1 receptor, rimonabant, at 0 μM, 100 μM, 10 μM, 1 μM, or 0.1 μM rimonabant. Untreated N2a/AβPPswe cells were used as a control. Treatment was then washed out, i.e. the medium was then removed from the cultures and 3 mL of media containing the treatment compounds were added. Cells were collected at 12 hours afterwards, 48 hours afterwards, 60 hours afterwards, and 72 hours afterwards, and ELISA was conducted on the cells.
# ELISA assay was performed on the cells using 50 μL of goat anti-PWT1-42 antibody solution, which was incubated overnight, followed by a 1-hour incubation with 0.1% I-block buffer. The tissue culture supernatant was diluted 1:10 with diluent buffer containing a protease inhibitor. Standards were prepared by serial dilution, as provided in Example 1. The plate was washed and 50 μL of sample or standard was added with triplication. 50 μL of both Biosource 40/42 (HS) (primary antibody) Aβ and a standard solution was added to each well and incubated for 3 hours followed by 5× wash with PBST. […]
# [1] = system: Aβ40 in N2a/AβPPswe cells; test: Aβ40 ELISA of N2a/AβPPswe cells treated with THC or caffeine; format: cell-based, human; conditions: THC 0.25-2500 nM or caffeine 0.625-10 μM
# Aβ [2] = conditions: cited from earlier work
# Aβ aggregation [3] = conditions: neuronal cells; cited from earlier work
# Aβ [4] = conditions: rats; cited from earlier work
# tau or neurofilament = conditions: induced by wortmannin, calyculin A, okadaic acid; N2a and SH-SY5Y cells; cited from earlier work
# [5] = system: Aβ in neuroblastoma cells; conditions: cited from earlier work
# mitochondrial function = conditions: Alzheimer's mice; cited from earlier work
# Aβ aggregation [6] = conditions: PC12 cells study; cited from earlier work
# Aβ [7] = conditions: transgenic model of AD; cited from earlier work
# Aβ in N2A cells = conditions: cited from earlier work
# Aβ1-41 = conditions: transgenic mice; cited from earlier work
# GSK-3β phosphorylation = conditions: melatonin 100 μM at the cellular level; cited from earlier work
# Aβ [8] = conditions: rat model of sporadic AD; cited from earlier work
# AβPP = conditions: transgenic model of AD; cited from earlier work
# [9] = system: hepatic mitochondrial DNA; conditions: mice; cited from earlier work
# Aβ [10] = conditions: frontal cortex; transgenic mice; cited from earlier work
# [11] = system: mitochondrial complexes I and IV; conditions: in vivo; cited from earlier work
# Aβ [12] = conditions: entorhinal cortex and hippocampus; transgenic mice model of AD; cited from earlier work
# [13] = system: tau protein in PC12 cells; conditions: cited from earlier work
compound,measurement,setting,value
Cc1c(C(=O)NN2CCCCC2)nn(-c2ccc(Cl)cc2Cl)c1-c1ccc(Cl)cc1 [rimonabant],Block of THC's Aβ lowering by CB1 antagonist,Aβ in N2a/AβPPswe cells; antagonist at 10^−4 M with 25 nM THC,partially blocked
same,Block of THC's Aβ lowering by CB1 antagonist,Aβ in N2a/AβPPswe cells; antagonist at 10^−7 M with 25 nM THC,inhibition function is lost
Cn1c(=O)c2c(ncn2C)n(C)c1=O [caffeine],Aβ40 levels versus control,"[1]; 6 hours, FIG. 1A",significant reduction
same,Aβ40 levels versus control,"[1]; 24 hours, FIG. 1B",exponential drop
same,Aβ40 levels versus control,"[1]; 48 hours, FIG. 1C",significant difference
same,Serum Aβ40 levels,Aβ [2]; mouse model,lower serum Aβ40 levels
same,Brain Aβ levels,Aβ [2]; transgenic mouse model,lowering brain Aβ levels
COc1ccc2[nH]cc(CCNC(C)=O)c2c1 [melatonin],Aβ aggregation,Aβ aggregation [3],reduced Aβ aggregation
same,Hippocampal Aβ generation,Aβ [4],reduced hippocampal Aβ generation
same,Tau or neurofilament hyperphosphorylation,tau or neurofilament,efficiently attenuates tau or neurofilament hyperphosphorylation
same,Aβ levels,[5],reduction of Aβ levels
same,Mitochondrial function,mitochondrial function,restores mitochondrial function
same,Aβ aggregation,Aβ aggregation [6],prevents Aβ aggregation
same,Aβ levels,Aβ [7],reduction in Aβ levels
same,Aβ levels,Aβ in N2A cells,reduced Aβ levels
same,Aβ1-41 levels,Aβ1-41,decreased Aβ1-41 levels
same,Decreased GSK-3β phosphorylation,GSK-3β phosphorylation,about 40%
same,Aβ accumulation,Aβ [8],attenuates Aβ accumulation
same,AβPP levels,AβPP,no change in AβPP levels
same,Ethanol-induced hepatic mitochondrial DNA depletion,[9],protects against ethanol-induced hepatic mitochondrial DNA depletion
same,Aβ levels,Aβ [10],reduces Aβ levels
same,Inhibition of mitochondrial complexes I and IV induced by ruthenium red,[11],prevented the inhibition of mitochondrial complexes I and IV
same,Aggregation of Aβ,Aβ [12],decreased the aggregation of Aβ
C=C(C)[C@@H]1CCC(C)=C[C@H]1c1c(O)cc(CCCCC)cc1O [Cannabidiol],β-amyloid-induced tau protein hyperphosphorylation,[13],inhibits β-amyloid-induced tau protein hyperphosphorylation

# Source: patent publication US11446276B2, “Extreme low dose THC as a therapeutic and prophylactic agent for Alzheimer's disease” (University of South Florida, priority 2015, dated 2022)
